The numbers were not newly measured in patent US8003637B2, “Stabilized atypical antipsychotic formulation” (Handa Pharmaceuticals, LLC, priority 2008, dated 2011), which cites them from elsewhere.

Like-named read-outs stand apart in the source and are kept apart here.

For the series the following is noted: Merck Index.

As to `O=C(O)/C=C/C(=O)O` [fumaric acid, (E)-butenedioic acid], the “amount soluble in 100 grams of water” value (25° C.) was 0.63 grams. Turning to `O=C(O)CCC(=O)O` [succinic acid, 1,4-butanedioic acid], the “volume of water in which 1 gram can dissolve” value is 1 mL (boiling water) and 13 mL (cold water).
